We go through 20 molecules from patent US4767768A, “Nitro aliphatic compounds, process for preparation thereof and use thereof” (Fujisawa Pharmaceutical Co., Ltd., priority 1982, dated 1988).

In brackets after ≈: the same amount, converted by molar mass. Where two headings read alike, the source gives them in different places.

The test system of assay [1] is rabbit platelet aggregation. The experiment in a line: Inhibition of rabbit platelet aggregation (turbidimetric, platelet rich plasma). It counts as cell-based, rabbit (male Japanese White). To be noted: Oryctolagus cuniculus. As for the experimental part: Inhibitory activity of the nitro aliphatic compounds of this invention against rabbit platelet aggregation was measured according to the method described below.
Blood was collected from the central ear arteries of male Japanese White rabbit (2.5 to 3.0 kg body weight). The blood was prevented from coagulation with 1 volume of 3.8% sodium citrate to 9 volumes of blood. Platelet rich plasma (PRP) was prepared by centrifugation of the blood at 1300 rpm for 10 min. at 10° C. The PRP was diluted with platelet poor plasma obtained by further centrifugation of the blood at 3000 rpm for 10 min. The platelet counts in the PRP used for aggregation studies were about 4.0×10^5 platelets/mm^3. Aggregometry was performed with platelet aggregating agents in a SIENCO dual sample aggregometer (DP-247E) at 37° C., using 0.3 ml combined volume of PRP and reagents in a cylindrical glass cuvette under constant stirring with a magnetic stirring bar. Platelet aggregation was measured turbidimetrically by recording changes in the light transmission of PRP during aggregation. Activities of inhibitors were expressed as IC50 values i.e. concentrations required to inhibit the platelet aggregation responses by 50%. Collagen was used in amounts (2 to 20 μg/ml for PRP) sufficient to induce a response that was 80 to 90% of the maximum obtainable. Arachidonic acid was used at a final concentration of 5 μM. Similarly a final concentration of adenosine di-phosphate (ADP), usually 1 to 5 μM was choosen to induce approximately 75% of the maximum aggregation. Thrombin was used at a final concentration of 0.3 U/ml.

Assay [2] deals with blood pressure. The experiment in a line: Hypotensive activity in anesthetized rat. Type of assay: in vivo, rat (Sprague-Dowley). To be noted: intravenous, urethane-anesthetized rat. On the procedure: A 8 weeks-old Sprague-Dowley strain rat was anesthetized with urethane (0.7 g/kg, i.p). Blood pressure was recorded from femoral artery using a transducer coupled to a Biophysiograph 180 system (made by Sanei Sokuki Co., Ltd.). The femoral vein was cannulated to permit intravenous injection of the test compound. The test compound was dissolved in saline and injected in a volume of 0.2 ml.

The mark [3] stands for this setting: Inducer: Thrombin (0.3 U/ml), Table 2, read-out: IC50, platelet aggregation.

Turning to `CCC(=CC=NO)C(C)[N+](=O)[O-]` (stereo not drawn) [Example 28, 3-ethyl-4-nitro-2-pentenaloxime], the IC50 in assay [1] (setting [3]) was 6 µg/mL (≈ 34.8 µM).

Take `CCOC(=O)C(C=C(CC)C(C)[N+](=O)[O-])=NO` (stereo not drawn) [Example 19, Ethyl 4-ethyl-2-hydroxyimino-5-nitro-3-hexenoate]: the IC50 in assay [1] (setting [3]) turned out to be 0.07 µg/mL (≈ 0.287 µM).

Consider `CCC(=CC(C=NO)=NO)C(C)[N+](=O)[O-]` (stereo not drawn) [Example 21, 4-ethyl-2-hydroxyimino-5-nitro-3-hexenaldehyde oxime], for which, in assay [1] (setting [3]), the IC50 turned out to be 0.15 µg/mL (≈ 0.697 µM).

As for `CCC(=CC(COC(C)=O)=NO)C(C)[N+](=O)[O-]` (stereo not drawn) [Example 23, 1-Acetoxy-4-ethyl-2-hydroxyimino-5-nitro-3-hexene], the IC50 in assay [1] (setting [3]) is 0.15 µg/mL (≈ 0.614 µM).

Consider `CCC(=CC(=NO)C(=O)N1CCN(C=O)CC1)C(C)[N+](=O)[O-]` (stereo not drawn) [Example 4, 1-Formyl-4-(4-ethyl-2-hydroxyimino-5-nitro-3-hexenoyl)piperazine], for which the IC50 in assay [1] (setting [3]) came to 0.3 µg/mL (≈ 0.961 µM).

In the case of `CCC(=CC(=NO)C(N)=O)C(c1ccc(OC)cc1)[N+](=O)[O-]` (stereo not drawn) [Example 14, 4-Ethyl-2-hydroxyimino-5-(4-methoxyphenyl)-5-nitro-3-pentenamide], the IC50 in assay [1] (setting [3]) came out at 0.3 µg/mL (≈ 0.976 µM).

As to `CCC(=CC(C=O)=NO)C(C)[N+](=O)[O-]` (stereo not drawn) [Example 18, 4-Ethyl-2-hydroxyimino-5-nitro-3-hexenal], in assay [1] (setting [3]), the IC50 came to 3 µg/mL (≈ 15 µM).

Regarding `CCCCNC(=O)C(C=C(CC)C(C)[N+](=O)[O-])=NO` (stereo not drawn) [Example 2, N-n-butyl-4-ethyl-2-hydroxyimino-5-nitro-3-hexenamide], the IC50 in assay [1] (setting [3]) was found to be 0.15 µg/mL (≈ 0.553 µM).

For `CCC(=CC(=NO)C(=O)NC)C(C)[N+](=O)[O-]` (stereo not drawn) [Example 3, N-Methyl-4-ethyl-2-hydroxyimino-5-nitro-3-hexenamide], the half-maximal inhibitory concentration (IC50) in assay [1] (setting [3]) worked out at 0.3 µg/mL (≈ 1.31 µM).

In the case of `CCC(=CC(=NO)C(=O)NCC(=O)O)C(C)[N+](=O)[O-]` (stereo not drawn) [Example 6, N-(4-Ethyl-2-hydroxyimino-5-nitro-3-hexenoyl)glycine], the IC50 in assay [1] (setting [3]) turned out to be 0.15 µg/mL (≈ 0.549 µM).

On to `CC/C(=C\C(=NO)C(N)=O)C(C)[N+](=O)[O-]` (stereo not drawn) [Example 1, (E)-4-ethyl-2-hydroxyimino-5-nitro-3-hexenamide], for which the half-maximal inhibitory concentration (IC50) in assay [1] (inducer: ADP (usually 1 to 5 μM), read-out: IC50 value, platelet aggregation) was determined as 0.15 µg/mL (≈ 0.697 µM); in assay [1] (inducer: Arachidonic acid (5 μM), read-out: IC50 value, platelet aggregation) it was 0.75 µg/mL (≈ 3.48 µM); in assay [1] (inducer: Collagen (2 to 20 μg/ml), read-out: IC50 value, platelet aggregation), 0.07 µg/mL (≈ 0.325 µM); in assay [1] (inducer: Thrombin (0.3 U/ml), Table 1, read-out: IC50 value, platelet aggregation), 0.15 µg/mL (≈ 0.697 µM). Also, the “Hypotensive effect, Duration” value in assay [2] (10 μg/kg) is 1.5 min; in assay [2] (100 μg/kg), 4 min. Further, the “Hypotensive effect, Maximal decrease” value in assay [2] (10 μg/kg) is 10 mm Hg; in assay [2] (100 μg/kg) it was 40 mm Hg.

Regarding `CCC(=CC(CO)=NO)C(C)[N+](=O)[O-]` (stereo not drawn) [Example 22, 4-ethyl-2-hydroxyimino-5-nitro-3-hexen-1-ol], the IC50 in assay [1] (setting [3]) worked out at 0.75 µg/mL (≈ 3.71 µM).

In the case of `CCC(=CC(=NO)C(=O)N[C@H](C(=O)O)[C@@H](C)O)C(C)[N+](=O)[O-]` (stereo partly drawn) [Example 10, N-(4-Ethyl-2-hydroxyimino-5-nitro-3-hexenoyl)-L-threonine], the IC50 in assay [1] (setting [3]) was determined as 0.3 µg/mL (≈ 0.945 µM).

With `CCC(CC(=NO)C(=O)NC(C)(C)C)C(C)[N+](=O)[O-]` (stereo not drawn) [Example 24, N-t-butyl-4-ethyl-2-hydroxyimino-5-nitrohexanamide], in assay [1] (setting [3]), the IC50 amounted to 1.5 µg/mL (≈ 5.49 µM).

For the molecule `CCC(=CC(=NO)C(=O)NCCCC(=O)O)C(C)[N+](=O)[O-]` (stereo not drawn) [Example 15, N-[4-Ethyl-2-hydroxyimino-5-nitro-3-hexenoyl]-4-aminobutyric acid], the IC50 in assay [1] (setting [3]) came to 0.75 µg/mL (≈ 2.49 µM).

For `CCC(CC(=NO)C(N)=O)C(C)[N+](=O)[O-]` (stereo not drawn) [Example 25, 4-Ethyl-2-hydroxyimino-5-nitro-hexanamide], the IC50 in assay [1] (setting [3]) stood at 6 µg/mL (≈ 27.6 µM).

With `CCC(=CC(=NO)C(=O)NCC(=O)OC)C(C)[N+](=O)[O-]` (stereo not drawn) [Example 20, Methyl 2-[4-ethyl-2-hydroxyimino-5-nitro-3-hexenoylamino]acetate], in assay [1] (setting [3]), the IC50 stood at 0.15 µg/mL (≈ 0.522 µM).

Regarding `CCC(=CC(=NO)C(=O)NCc1ccccc1)C(C)[N+](=O)[O-]` (stereo not drawn) [Example 11, N-Benzyl-4-ethyl-2-hydroxyimino-5-nitro-3-hexenamide], the half-inhibitory concentration (IC50) in assay [1] (setting [3]) came out at 0.15 µg/mL (≈ 0.491 µM).

For the molecule `CCC(=CC(C#N)=NO)C(C)[N+](=O)[O-]` (stereo not drawn) [Example 17, 4-Ethyl-2-hydroxyimino-5-nitro-3-hexenenitrile], the IC50 in assay [1] (setting [3]) was 1.5 µg/mL (≈ 7.61 µM).

Turning to `CCC(=CC(=NO)C(=O)N1CCCCC1)C(C)[N+](=O)[O-]` (stereo not drawn) [Example 7, N-(4-Ethyl-2-hydroxyimino-5-nitro-3-hexenoyl)piperidine], the IC50 in assay [1] (setting [3]) amounted to 0.75 µg/mL (≈ 2.65 µM).
